Test results taken from PMC5011342, “A high throughput drug screening assay to identify compounds that promote oligodendrocyte differentiation using acutely dissociated and purified oligodendrocyte precursor cells” (BMC Research Notes, 2016).
Like-named read-outs stand apart in the source and are kept apart here.

Experiments:
[1] = test system: acutely dissociated and purified rat OPCs; experiment: Acute OL differentiation assay (MBP expression/cell, immunofluorescent image quantification); assay type: cell-based; details: Rattus norvegicus, sheet "All OLga data"; for activation at 0.4 µM: test compound at 0.4 uM, read-out: 0.4 uM (% Quet)
Outline: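 Oligodendrocyte precursor cells were enriched from P6-P7 Sprague–Dawley rat brains by immunopanning (RAN-2 and GalC depletion, O4 selection), plated at 5000 cells/well in serum-free, mitogen-free differentiation media on PDL/laminin 96-well view plates, centrifuged at 200×g, and pre-incubated 1–2 h before test compounds were added in quadruplicate. On DIV4, cells were fixed, stained for MBP and DAPI, imaged automatically, and MBP expression per cell was quantified.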

expanded OPCs = experiment: cells; details: for viability at 0.1 µM / viability at 1 µM / viability at 10 µM: Rattus norvegicus, 72 h; for 0.1 µM (% DMSO) / 1 µM (% DMSO) / 10 µM (% DMSO): alamarBlue viability of expanded OPCs, relative to DMSO control; for 0.1 µM (% DMSO): compound at 0.1 µM; for 1 µM (% DMSO): compound at 1 µM; for 10 µM (% DMSO): compound at 10 µM
Outline: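 Expanded OPCs seeded at 10,000 cells/well in differentiation media, then exposed to NCC library compounds at 10, 1 and 0.1 µM (quadruplicate, 0.1% DMSO) for three days. Viability read as alamarBlue fluorescence (560/590 nm) after 4 h at 37 °C; tunicamycin 5 ng/ml served as toxicity control.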

[2] = test compound at 2 uM, NCC library screen, relative to quetiapine, read-out: 2 uM (% Quet)
[3] = test compound at 10 uM, NCC library screen, relative to quetiapine, read-out: 10 uM (% Quet)
[4] = read-out: 0.1 µM (% DMSO), alamarBlue viability, NCC library compound at 0.1 µM, sheet "All Tox data"
[5] = read-out: 1 µM (% DMSO), alamarBlue viability, NCC library compound at 1 µM, sheet "All Tox data"
[6] = read-out: 10 µM (% DMSO), alamarBlue viability, NCC library compound at 10 µM, sheet "All Tox data"
[7] = 2 uM test compound, relative to quetiapine, read-out: OL differentiation, 2 uM (% Quet)
[8] = 10 uM test compound, relative to quetiapine, read-out: OL differentiation, 10 uM (% Quet)
[9] = read-out: 0.1 µM (% DMSO), alamarBlue viability of expanded OPCs, compound at 0.1 µM, sheet All Tox data
[10] = read-out: 1 µM (% DMSO), alamarBlue viability of expanded OPCs, compound at 1 µM, sheet All Tox data
[11] = read-out: 10 µM (% DMSO), alamarBlue viability of expanded OPCs, compound at 10 µM, sheet All Tox data
[12] = test compound at 2 uM, MBP expression relative to quetiapine, NCC library screen, read-out: 2 uM (% Quet)
[13] = test compound at 10 uM, MBP expression relative to quetiapine, NCC library screen, read-out: 10 uM (% Quet)
[14] = NCC library screen, relative to quetiapine

Structure (SMILES)	activation at 2 µM [1, 2] [%]	activation at 10 µM [1, 3] [%]	viability at 0.1 µM (expanded OPCs; [4]) [%]	viability at 1 µM (expanded OPCs; [5]) [%]	viability at 10 µM (expanded OPCs; [6]) [%]	0.1 µM (% DMSO) (expanded OPCs)	1 µM (% DMSO) (expanded OPCs)	10 µM (% DMSO) (expanded OPCs)	also measured
CC(=O)O[C@H]1C[C@@H]2CC[C@@H]3[C@H](CC[C@@]4(C)[C@H]3C[C@H]([N+]3(C)CCCCC3)[C@@H]4OC(C)=O)[C@@]2(C)C[C@@H]1N1CCCCC1 [Vecuronium Bromide]	13.2	17.7	86.3	87.7	78.4	–	–	–	–
O=C1CN(/N=C/c2ccc([N+](=O)[O-])o2)C(=O)N1 [Nitrofurantoin]	-26.2	-72.2	–	–	–	101.2	101.9	87.2	–
CN(C)CC/C=C1/c2ccccc2COc2ccc(CC(=O)O)cc21 [Olopatadine]	-29.3	-29	88.7	89.3	77.6	–	–	–	–
CN(C)CCc1c[nH]c2ccc(C[C@H]3COC(=O)N3)cc12 [Zolmitriptan]	4.1	4.7	85.9	89.9	95.5	–	–	–	–
CN(C)CCc1c[nH]c2ccc(Cn3cncn3)cc12 [Rizatriptan]	–	–	–	–	–	–	–	–	activation at 2 µM [1, 7]: -2.6%; activation at 10 µM [1, 8]: -0.44%; viability at 0.1 µM (expanded OPCs; [9]): 110%; viability at 1 µM (expanded OPCs; [10]): 94.8%; viability at 10 µM (expanded OPCs; [11]): 86.3%
CC(=O)OCC(=O)[C@@]1(O)CC[C@H]2[C@@H]3C[C@H](C)C4=CC(=O)C=C[C@]4(C)[C@H]3[C@@H](O)C[C@@]21C [Methylprednisolone acetate]	–	–	–	–	–	106.9	104.6	95.3	activation at 2 µM [1, 12]: 3.6%; activation at 10 µM [1, 13]: -59.5%
CC[C@H]1OC(=O)[C@H](C)C(=O)[C@H](C)[C@@H](O[C@@H]2O[C@H](C)C[C@H](N(C)C)[C@H]2O)[C@](C)(OC)C[C@@H](C)C(=O)[C@H](C)[C@H]2N(CCCCn3cnc(-c4cccnc4)c3)C(=O)O[C@]12C [Telithromycin]	17.7	10.4	98.4	105	94	–	–	–	–
O=c1[nH]c(=O)n([C@H]2C[C@H](O)[C@@H](CO)O2)cc1F [Floxuridine]	–	–	–	–	–	65.0	64.9	67.9	activation at 0.4 µM ([1]; MBP expression relative to quetiapine, NCC library screen): -13.5%; activation at 2 µM [1, 12]: -23.6%
CC1(C)O[C@@H]2C[C@H]3[C@@H]4CCC5=CC(=O)C=C[C@]5(C)[C@@]4(F)[C@@H](O)C[C@]3(C)[C@]2(C(=O)CO)O1 [Azmacort]	–	–	–	–	–	95.7	95.0	69.5	activation at 2 µM [1, 12]: 24.2%; activation at 10 µM [1, 13]: -114%
CCOc1cc(N)c(Cl)cc1C(=O)NCC1CN(Cc2ccc(F)cc2)CCO1 (stereo not shown) [Mosapride]	–	–	–	–	–	–	–	–	activation at 2 µM [1, 7]: -17%; activation at 10 µM [1, 8]: 4.4%; viability at 0.1 µM (expanded OPCs; [9]): 102%; viability at 1 µM (expanded OPCs; [10]): 104%; viability at 10 µM (expanded OPCs; [11]): 130%
Oc1cc2c(cc1O)[C@H]1c3ccccc3CN[C@@H]1CC2 (racemic) [Dihydrexidine]	–	–	81.4	37.9	9.8	–	–	–	activation at 0.08 µM ([1]; test compound at 0.08 uM, NCC library screen, relative to quetiapine, read-out: 0.08 uM (% Quet)): -13.3%; activation at 0.4 µM [1, 14]: -27.6%
OCCN1C[C@H](O)[C@@H](O)[C@H](O)[C@H]1CO [Miglitol]	–	–	–	–	–	–	–	–	activation at 2 µM [1, 7]: 13.5%; activation at 10 µM [1, 8]: -3.3%; viability at 0.1 µM (expanded OPCs; [9]): 90.6%; viability at 1 µM (expanded OPCs; [10]): 92.6%; viability at 10 µM (expanded OPCs; [11]): 90.3%
Nc1nc2c(ncn2CCC(CO)CO)c(=O)[nH]1 [Penciclovir]	–	–	100	98	90.7	–	–	–	activation at 2 µM [1, 7]: -3.5%; activation at 10 µM [1, 8]: 0.01%
O=C(O)c1cc(-c2ccc(F)cc2F)ccc1O [Diflunisal]	5.6	–	–	–	–	94.0	92.0	35.0	activation at 0.4 µM [1, 14]: 0.3%
